{"source": "patent US20210177893A1", "about": "“Composition and method for treating and healing Medication-Related Osteonecrosis of the Jaw (MRONJ)” (priority 2019, published 2021)", "key": {"[1]": {"system": "MRONJ", "conditions": "oral alendronate users, 208 patients; cited from earlier work"}, "[2]": {"system": "MRONJ", "conditions": "out of 24 patients treated with 0.12% chlorhexidine; cited from earlier work"}, "[3]": {"system": "capillary neoangiogenesis", "conditions": "cited from earlier work"}, "[4]": {"conditions": "in the glycerin gels; cited from earlier work"}, "[5]": {"system": "oral mucosal cells (human gingival fibroblasts and keratinocytes)", "conditions": "direct application, in vitro; cited from earlier work"}, "[6]": {"system": "MRONJ lesions", "experiment": "Clinical observation of MRONJ patients (Example 1)", "type": "in vivo, human", "conditions": "one patient on intravenous zoledronate, multiple myeloma; lesion smoothed, antibiotic regimen; observed a little over a year"}}}
{"molecule": "NCCCC(O)(P(=O)(O)O)P(=O)(O)O", "note": "[alendronate]", "values": [{"measurement": "MRONJ prevalence rate", "setting": "[1]", "result": 4, "unit": "%"}]}
{"molecule": "[H]/N=C(\\N/C(=N/[H])NCCCCCCNC(=N)NC(=N)Nc1ccc(Cl)cc1)Nc1ccc(Cl)cc1", "note": "[chlorhexidine]", "values": [{"measurement": "patients who experienced MRONJ progression", "setting": "[2]", "result": 13, "unit": "patients"}, {"measurement": "patients who experienced MRONJ resolution", "setting": "[2]", "result": 3, "unit": "patients"}, {"measurement": "patients who experienced no change in ONJ status", "setting": "[2]", "result": 8, "unit": "patients"}]}
{"molecule": "NCCC(O)(P(=O)(O)O)P(=O)(O)O", "note": "[pamidronate]", "values": [{"measurement": "effect on new formation of capillaries from blood vessels (capillary neoangiogenesis)", "setting": "[3]", "result": "inhibit the new formation of capillaries from blood vessels"}]}
{"molecule": "[F][Sn][F]", "note": "[stannous fluoride]", "values": [{"measurement": "stability", "setting": "[4]", "result": "relatively stable"}]}
{"molecule": "O=P(O)(O)C(O)(Cn1ccnc1)P(=O)(O)O", "note": "[zoledronic acid]", "values": [{"measurement": "effect on the life of oral mucosal cells", "setting": "[5]", "result": "deleterious effect on the life of these cells"}]}
{"molecule": "Augmentin", "values": [{"measurement": "outcome of bone lesion", "setting": "[6]", "result": "continued to increase in size and did not heal"}]}
